Assay results reported in patent US11377442B2, “Small molecule agonists and antagonists of NR2F6 activity” (ZANDER THERAPEUTICS, INC., priority 2016, dated 2022).
Like-named read-outs stand apart in the source and are kept apart here. Values belong to the compound of their own block, whether it stands above or below them.

Assays:
Assay type in all cases: cell-based
NR2F6 = target: T1, NR2F6 (Homo sapiens, UniProt P10588); test: NR2F6 agonist screening, Firefly signal cmpd/DMSO
T1 construct: expressed in transfected cells; also transient transfection
T1 sequence (P10588 1-404): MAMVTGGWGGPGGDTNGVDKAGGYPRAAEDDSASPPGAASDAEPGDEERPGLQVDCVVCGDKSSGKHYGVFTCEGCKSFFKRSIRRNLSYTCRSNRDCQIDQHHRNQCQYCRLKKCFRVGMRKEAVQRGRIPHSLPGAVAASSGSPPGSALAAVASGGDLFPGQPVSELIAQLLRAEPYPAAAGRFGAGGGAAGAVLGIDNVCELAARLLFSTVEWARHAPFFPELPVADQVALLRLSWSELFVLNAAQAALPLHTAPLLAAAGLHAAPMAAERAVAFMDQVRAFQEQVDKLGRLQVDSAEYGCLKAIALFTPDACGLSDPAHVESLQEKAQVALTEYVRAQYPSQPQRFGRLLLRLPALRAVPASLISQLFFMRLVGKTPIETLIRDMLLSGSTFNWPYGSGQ

Renilla = Renilla signal in NR2F6 agonist screening, cmpd/DMSO; conditions: Renilla, F4
HEK293 pGL4 = test: Firefly_pGL signal, cmpd/DMSO (pGL4 control cells); conditions: Homo sapiens
NR2F6 LBD = target: T2, NR2F6 LBD (Homo sapiens, UniProt P10588); test: NR2F6 LBD transient transfection; conditions: LBD
T2 construct: expressed in transfected cells
T2 sequence (P10588 165-393 limits assumed): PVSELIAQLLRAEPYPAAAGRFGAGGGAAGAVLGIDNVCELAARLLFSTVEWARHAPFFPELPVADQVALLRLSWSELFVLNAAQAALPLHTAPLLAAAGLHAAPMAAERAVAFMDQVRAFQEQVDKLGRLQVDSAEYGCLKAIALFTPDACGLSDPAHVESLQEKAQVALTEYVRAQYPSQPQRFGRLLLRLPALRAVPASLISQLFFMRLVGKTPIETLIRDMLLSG
How it was run: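 LBD-transfected cells treated at 40, 10, 2 and 0.5 μM (4 replicates); cytotoxicity measured in parallel, normalized to DMSO (0%) and zero signal (100%). Higher concentrations excluded where signal loss reflected toxicity.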

[1] = read-out: Renilla, F4, cmpd/DMSO (mean)
[2] = 1% FBS, read-out: Renilla, F4, 1% FBS, cmpd/DMSO (mean)
[3] = 10% FBS, read-out: Renilla, F4, 10% FBS, cmpd/DMSO (mean)
[4] = HEK293, 0.5 uM, pGL4, read-out: Firefly pGL4, cmpd/DMSO (mean)
[5] = HEK293, 2 uM, pGL4, read-out: Firefly pGL4, cmpd/DMSO (mean)
[6] = HEK293, 10 uM, pGL4, read-out: Firefly pGL4, cmpd/DMSO (mean)
[7] = HEK293, 40 uM, pGL4, read-out: Firefly pGL4, cmpd/DMSO (mean)

- Firefly F4, cmpd/DMSO (mean) (NR2F6; 0.5 uM): 1.6
- Firefly F4, cmpd/DMSO (mean) (NR2F6; 2 uM): 1.3
- Firefly F4, cmpd/DMSO (mean) (NR2F6; 10 uM): 4.6
- Firefly F4, cmpd/DMSO (mean) (NR2F6; 40 uM): 2.1
- F4, Firefly/Renilla for S/B(F4) > 3 (NR2F6; 1% FBS, 10 uM): 2.0
- Firefly, F4/pGL4 for S/B(F4) > 3 (NR2F6; 1% FBS, 10 uM): 1.3
- F4, Firefly/Renilla for S/B(F4) > 3 (NR2F6; 10% FBS, 40 uM): 1.7
- Firefly, F4/pGL4 for S/B(F4) > 3 (NR2F6; 10% FBS, 40 uM): 1.4
- Firefly, F4, 1% FBS, cmpd/DMSO (mean) (NR2F6; 1% FBS, 0.5 uM): 0.9
- Firefly, F4, 1% FBS, cmpd/DMSO (mean) (NR2F6; 1% FBS, 2 uM): 1.9
- Firefly, F4, 1% FBS, cmpd/DMSO (mean) (NR2F6; 1% FBS, 10 uM): 3.1
- Firefly, F4, 1% FBS, cmpd/DMSO (mean) (NR2F6; 1% FBS, 40 uM): 0.4
- Firefly, F4, 10% FBS, cmpd/DMSO (mean) (NR2F6; 10% FBS, 0.5 uM): 1.2
- Firefly, F4, 10% FBS, cmpd/DMSO (mean) (NR2F6; 10% FBS, 2 uM): 1.0
- Firefly, F4, 10% FBS, cmpd/DMSO (mean) (NR2F6; 10% FBS, 10 uM): 2.3
- Firefly, F4, 10% FBS, cmpd/DMSO (mean) (NR2F6; 10% FBS, 40 uM): 4.5
- Firefly LBD, cmpd/DMSO (mean) (NR2F6 LBD; 0.5 uM): 1.4
- Firefly LBD, cmpd/DMSO (mean) (NR2F6 LBD; 2 uM): 1.6
- Firefly LBD, cmpd/DMSO (mean) (NR2F6 LBD; 10 uM): 3.6
- Firefly LBD, cmpd/DMSO (mean) (NR2F6 LBD; 40 uM): 0.5
SMILES: O=S1(=O)C[C@H](NC2CCCCC2)[C@@H](S(=O)(=O)c2ccc(Cl)cc2)C1 [Compound D124]
- fold induction at 0.5 µM (Renilla; [1]): 1.1
- fold induction at 2 µM (Renilla; [1]): 1.2
- fold induction at 10 µM (Renilla; [1]): 1.5
- fold induction at 40 µM (Renilla; [1]): 1.8
- fold induction at 0.5 µM (Renilla; [2]): 1.1
- fold induction at 2 µM (Renilla; [2]): 1.2
- fold induction at 10 µM (Renilla; [2]): 1.5
- fold induction at 40 µM (Renilla; [2]): 1.6
- fold induction at 0.5 µM (Renilla; [3]): 1
- fold induction at 2 µM (Renilla; [3]): 1
- fold induction at 10 µM (Renilla; [3]): 1.3
- fold induction at 40 µM (Renilla; [3]): 2.6
- fold induction at 0.5 µM (HEK293 pGL4; [4]): 1.4
- fold induction at 2 µM (HEK293 pGL4; [5]): 1.5
- fold induction at 10 µM (HEK293 pGL4; [6]): 3.1
- fold induction at 40 µM (HEK293 pGL4; [7]): 0.7
- fold induction at 0.5 µM (HEK293 pGL4; HEK293, pGL4, 1% FBS, 0.5 uM, read-out: Firefly, pGL4, 1% FBS, cmpd/DMSO (mean)): 1.1
- fold induction at 2 µM (HEK293 pGL4; HEK293, pGL4, 1% FBS, 2 uM, read-out: Firefly, pGL4, 1% FBS, cmpd/DMSO (mean)): 1.6
- fold induction at 10 µM (HEK293 pGL4; HEK293, pGL4, 1% FBS, 10 uM, read-out: Firefly, pGL4, 1% FBS, cmpd/DMSO (mean)): 2.4
- fold induction at 40 µM (HEK293 pGL4; HEK293, pGL4, 1% FBS, 40 uM, read-out: Firefly, pGL4, 1% FBS, cmpd/DMSO (mean)): 0.8
- fold induction at 0.5 µM (HEK293 pGL4; HEK293, pGL4, 10% FBS, 0.5 uM, read-out: Firefly, pGL4, 10% FBS, cmpd/DMSO (mean)): 1.2
- fold induction at 2 µM (HEK293 pGL4; HEK293, pGL4, 10% FBS, 2 uM, read-out: Firefly, pGL4, 10% FBS, cmpd/DMSO (mean)): 1.4
- fold induction at 10 µM (HEK293 pGL4; HEK293, pGL4, 10% FBS, 10 uM, read-out: Firefly, pGL4, 10% FBS, cmpd/DMSO (mean)): 2.2
- fold induction at 40 µM (HEK293 pGL4; HEK293, pGL4, 10% FBS, 40 uM, read-out: Firefly, pGL4, 10% FBS, cmpd/DMSO (mean)): 3.2

- Firefly F4, cmpd/DMSO (mean) (NR2F6; 0.5 uM): 1.3
- Firefly F4, cmpd/DMSO (mean) (NR2F6; 2 uM): 2.3
- Firefly F4, cmpd/DMSO (mean) (NR2F6; 10 uM): 5.6
- Firefly F4, cmpd/DMSO (mean) (NR2F6; 40 uM): 0.9
- Activity, cmpd/DMSO (NR2F6; Table 31): 7.3
- Firefly LBD, cmpd/DMSO (mean) (NR2F6 LBD; 0.5 uM): 1.0
- Firefly LBD, cmpd/DMSO (mean) (NR2F6 LBD; 2 uM): 1.6
- Firefly LBD, cmpd/DMSO (mean) (NR2F6 LBD; 10 uM): 4.6
- Firefly LBD, cmpd/DMSO (mean) (NR2F6 LBD; 40 uM): 0.4
SMILES: CC1CCN([C@H]2CS(=O)(=O)C[C@@H]2S(=O)(=O)c2ccc(Cl)cc2)CC1 [Compound D125]
- fold induction at 0.5 µM (Renilla; [1]): 1
- fold induction at 2 µM (Renilla; [1]): 1.3
- fold induction at 10 µM (Renilla; [1]): 1.8
- fold induction at 40 µM (Renilla; [1]): 1.3
- fold induction at 0.5 µM (HEK293 pGL4; [4]): 1.4
- fold induction at 2 µM (HEK293 pGL4; [5]): 1.9
- fold induction at 10 µM (HEK293 pGL4; [6]): 4.2
- fold induction at 40 µM (HEK293 pGL4; [7]): 0.6
